pIC50: −log10 of the molar value.
What was measured:
Assay in all cases: cells
SW1573 = format: functional, cell-based; details: Homo sapiens;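 note: growth inhibition of SW1573 cells, read out with a cell viability assay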
Description: SANGER: Inhibition of human SW1573 cell growth in a cell viability assay.

MEL-JUSO = format: functional, cell-based; details: Homo sapiens;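 note: growth inhibition of human MEL-JUSO cells, read out with a cell viability assay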
Description: SANGER: Inhibition of human MEL-JUSO cell growth in a cell viability assay.

DK-MG = format: functional, cell-based; details: Homo sapiens;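 note: growth inhibition of DK-MG cells, read out with a cell viability assay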
Description: SANGER: Inhibition of human DK-MG cell growth in a cell viability assay.

EC-GI-10 = format: functional, cell-based, Homo sapiens; details: Homo sapiens, EC-GI-10
Description: SANGER: Inhibition of human EC-GI-10 cell growth in a cell viability assay.

WM-115 = format: functional, cell-based; details: Homo sapiens
Description: SANGER: Inhibition of human WM-115 cell growth in a cell viability assay.

CAL-62 = format: functional, cell-based; details: Homo sapiens;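 note: growth inhibition of CAL-62 cells, read out with a cell viability assay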
Description: SANGER: Inhibition of human CAL-62 cell growth in a cell viability assay.

OAW-42 = format: functional, cell-based; details: Homo sapiens;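 note: growth inhibition of OAW-42 cells, read out with a cell viability assay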
Description: SANGER: Inhibition of human OAW-42 cell growth in a cell viability assay.

CAL-120 = format: functional, cell-based; details: Homo sapiens;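 note: cell growth inhibition, read out as cell viability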
Description: SANGER: Inhibition of human CAL-120 cell growth in a cell viability assay.

HuO9 = format: functional, cell-based; details: Homo sapiens;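 note: growth inhibition of HuO9 cells, read out with a cell viability assay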
Description: SANGER: Inhibition of human HuO9 cell growth in a cell viability assay.

HuP-T4 = format: functional, cell-based; details: Homo sapiens;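 note: cell viability assay measuring how much HuP-T4 cell growth is inhibited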
Description: SANGER: Inhibition of human HuP-T4 cell growth in a cell viability assay.

MKN-1 = format: functional, cell-based; details: Homo sapiens;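 note: growth inhibition of human MKN1 cells, read out by a cell viability measurement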
Description: SANGER: Inhibition of human MKN1 cell growth in a cell viability assay.

LCLC-97TM1 = format: functional, cell-based; details: Homo sapiens;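 note: cell viability assay measuring growth inhibition of human LCLC-97TM1 cells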
Description: SANGER: Inhibition of human LCLC-97TM1 cell growth in a cell viability assay.

HT55 = format: functional, cell-based; details: Homo sapiens;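 note: cell viability readout measuring growth inhibition of human HT55 cells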
Description: SANGER: Inhibition of human HT55 cell growth in a cell viability assay.

MKN-7 = format: functional, cell-based; details: Homo sapiens;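 note: growth inhibition of MKN-7 cells, read out with a cell viability assay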
Description: SANGER: Inhibition of human MKN7 cell growth in a cell viability assay.

KOSC-2 = format: functional, cell-based; details: Homo sapiens;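 note: growth inhibition of KOSC-2 cells, read out by a cell viability assay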
Description: SANGER: Inhibition of human KOSC-2 cell growth in a cell viability assay.

KU-19-19 = format: functional, cell-based; details: Homo sapiens
Description: SANGER: Inhibition of human KU-19-19 cell growth in a cell viability assay.

HTC-C3 = format: functional, cell-based; details: Homo sapiens;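 note: inhibition of cell growth, read out with a cell viability assay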
Description: SANGER: Inhibition of human HTC-C3 cell growth in a cell viability assay.

EFM-19 = format: functional, cell-based; details: Homo sapiens;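 note: growth inhibition of human EFM-19 cells, measured in a cell viability assay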
Description: SANGER: Inhibition of human EFM-19 cell growth in a cell viability assay.

A-431 = format: functional, cell-based; details: Homo sapiens;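 note: growth inhibition of A-431 cells, determined with a cell viability read-out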
Description: SANGER: Inhibition of human A431 cell growth in a cell viability assay.

ASPC1 = format: functional, cell-based; details: Homo sapiens;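 note: growth inhibition of AsPC-1 cells, read out with a cell viability assay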
Description: SANGER: Inhibition of human AsPC-1 cell growth in a cell viability assay.

LoVo = format: functional, cell-based; details: Homo sapiens;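 note: growth inhibition of human LoVo cells, read out with a cell viability assay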
Description: SANGER: Inhibition of human LoVo cell growth in a cell viability assay.

NCI-H2170 = format: functional, cell-based; details: Homo sapiens;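 note: cell viability assay measuring growth inhibition of human NCI-H2170 cancer cells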
Description: SANGER: Inhibition of human NCI-H2170 cell growth in a cell viability assay.

HuTu80 = format: functional, cell-based, Homo sapiens, HUTU-80; details: Homo sapiens, HuTu80;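 note: growth inhibition of HuTu80 human cells, determined with a cell viability readout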
Description: SANGER: Inhibition of human HUTU-80 cell growth in a cell viability assay.

RMG-I = format: functional, cell-based; details: Homo sapiens;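 note: growth inhibition of human RMG-I cells, read out with a cell viability assay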
Description: SANGER: Inhibition of human RMG-I cell growth in a cell viability assay.

A-375 = format: functional, cell-based; details: Homo sapiens;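 note: growth inhibition of A375 cells, read out with a cell viability assay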
Description: SANGER: Inhibition of human A375 cell growth in a cell viability assay.

TCC-SUP = format: functional, cell-based; details: Homo sapiens;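 note: growth inhibition of TCC-SUP cells, read out with a cell viability assay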
Description: SANGER: Inhibition of human TCCSUP cell growth in a cell viability assay.

KYSE-510 = format: functional, cell-based; details: Homo sapiens;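 note: cell viability readout used to measure how strongly growth of the cell line is suppressed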
Description: SANGER: Inhibition of human KYSE-510 cell growth in a cell viability assay.

KYSE-70 cell line = format: functional, cell-based; details: Homo sapiens;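 note: cell viability assay read-out, with IC50 expressing suppression of KYSE-70 cell growth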
Description: SANGER: Inhibition of human KYSE-70 cell growth in a cell viability assay.

NB14 = format: functional, cell-based, Homo sapiens; details: Homo sapiens, NB14;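 note: growth inhibition of NB14 cells measured with a cell viability assay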
Description: SANGER: Inhibition of human NB14 cell growth in a cell viability assay.

LK-2 = format: functional, cell-based; details: Homo sapiens;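 note: growth inhibition of LK-2 cells, read out with a viability assay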
Description: SANGER: Inhibition of human LK-2 cell growth in a cell viability assay.

CAMA-1 = format: functional, cell-based; details: Homo sapiens;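 note: growth inhibition of CAMA-1 cells, read out with a cell viability assay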
Description: SANGER: Inhibition of human CAMA-1 cell growth in a cell viability assay.

VM-CUB-1 = format: functional, cell-based; details: Homo sapiens;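 note: cell viability assay measuring growth inhibition of the human VM-CUB-1 cell line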
Description: SANGER: Inhibition of human VM-CUB-1 cell growth in a cell viability assay.

CAL-39 = format: functional, cell-based; details: Homo sapiens;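 note: cell viability assay measuring growth inhibition of CAL-39 cells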
Description: SANGER: Inhibition of human CAL-39 cell growth in a cell viability assay.

LCLC-103H cell line = format: functional, cell-based; details: Homo sapiens
Description: SANGER: Inhibition of human LCLC-103H cell growth in a cell viability assay.

NUGC-3 = format: functional, cell-based; details: Homo sapiens;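 note: growth inhibition of human NUGC-3 cells, read out with a cell viability assay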
Description: SANGER: Inhibition of human NUGC-3 cell growth in a cell viability assay.

SW13 = format: functional, cell-based; details: Homo sapiens;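 note: IC50 is inhibition of SW13 cell growth, read out with a cell viability assay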
Description: SANGER: Inhibition of human SW13 cell growth in a cell viability assay.

HOP-92 = format: functional, cell-based; details: Homo sapiens;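 note: cell viability readout, with IC50 reflecting inhibition of HOP-92 cell growth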
Description: SANGER: Inhibition of human HOP-92 cell growth in a cell viability assay.

HCC1937 = format: functional, cell-based; details: Homo sapiens;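 note: growth inhibition measured with a cell viability read-out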
Description: SANGER: Inhibition of human HCC1937 cell growth in a cell viability assay.

KP-4 = format: functional, cell-based; details: Homo sapiens;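 note: human KP-4 cells, with growth inhibition read out through a cell viability assay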
Description: SANGER: Inhibition of human KP-4 cell growth in a cell viability assay.

SK-MEL-30 = format: functional, cell-based; details: Homo sapiens;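 note: growth inhibition of SK-MEL-30 cells, determined with a cell viability assay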
Description: SANGER: Inhibition of human SK-MEL-30 cell growth in a cell viability assay.

SW626 = format: functional, cell-based; details: Homo sapiens;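 note: growth inhibition of SW626 cells, measured with a cell viability assay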
Description: SANGER: Inhibition of human SW626 cell growth in a cell viability assay.

769-P = format: functional, cell-based; details: Homo sapiens
Description: SANGER: Inhibition of human 769-P cell growth in a cell viability assay.

SK-MEL3 = format: functional, cell-based, SK-MEL-3; details: Homo sapiens;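 note: growth inhibition of human SK-MEL-3 cells, read out with a cell viability assay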
Description: SANGER: Inhibition of human SK-MEL-3 cell growth in a cell viability assay.

HCC70 = format: functional, cell-based; details: Homo sapiens;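 note: cell viability assay measuring how strongly the compound suppresses proliferation of HCC70 cells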
Description: SANGER: Inhibition of human HCC70 cell growth in a cell viability assay.

`NC(=O)Nc1cc(-c2cccc(F)c2)sc1C(=O)N[C@H]1CCCNC1` [AZD-7762] gave a pIC50 (SW1573) of 6.03, a pIC50 (MEL-JUSO) of 6.88 and a pIC50 (DK-MG) of less than 5.70. The pIC50 (EC-GI-10) was 5.75, the pIC50 (WM-115) was less than 5.70 and the pIC50 (CAL-62) was 6.24. The pIC50 (OAW-42) was 6.03, the pIC50 (CAL-120) was less than 5.70 and the pIC50 (HuO9) was 6.53. For the same compound, the pIC50 (HuP-T4) was 6.33, the pIC50 (MKN-1) was 6.46 and the pIC50 (LCLC-97TM1) was 6.50. It also gave a pIC50 (HT55) of 5.79, a pIC50 (MKN-7) of 5.92 and a pIC50 (KOSC-2) of 6.61. The pIC50 (KU-19-19) was less than 5.70, the pIC50 (HTC-C3) was 6.08 and the pIC50 (EFM-19) was 5.83. It also gave a pIC50 (A-431) of 6.03, a pIC50 (ASPC1) of 6.18 and a pIC50 (LoVo) of 6.79. It also gave a pIC50 (NCI-H2170) of 5.82, a pIC50 (HuTu80) of less than 5.70 and a pIC50 (RMG-I) of 5.72. It also gave a pIC50 (A-375) of 6.30, a pIC50 (TCC-SUP) of less than 5.70 and a pIC50 (KYSE-510) of 5.80. The pIC50 (KYSE-70 cell line) was less than 5.70, the pIC50 (NB14) was 7.21 and the pIC50 (LK-2) was 5.83. The pIC50 (CAMA-1) was less than 5.70, the pIC50 (VM-CUB-1) was 6.21 and the pIC50 (CAL-39) was less than 5.70. It also gave a pIC50 (LCLC-103H cell line) of 6.01, a pIC50 (NUGC-3) of less than 5.70 and a pIC50 (SW13) of less than 5.70. The pIC50 (HOP-92) was 6.53, the pIC50 (HCC1937) was 6.15 and the pIC50 (KP-4) was 5.84. It also gave a pIC50 (SK-MEL-30) of less than 5.70, a pIC50 (SW626) of 6.30 and a pIC50 (769-P) of 6.65. For the same compound, the pIC50 (SK-MEL3) was less than 5.70 and the pIC50 (HCC70) was 6.51.
With `Cc1ccc(-n2nc(C(C)(C)C)cc2NC(=O)Nc2ccc(OCCN3CCOCC3)c3ccccc23)cc1` [DORAMAPIMOD] the pIC50 (SW1573) was less than 5.00, the pIC50 (MEL-JUSO) was less than 5.00 and the pIC50 (DK-MG) was less than 5.00. It also gave a pIC50 (WM-115) of less than 5.00, a pIC50 (CAL-62) of less than 5.00 and a pIC50 (OAW-42) of less than 5.00. It also gave a pIC50 (CAL-120) of less than 5.00, a pIC50 (HuO9) of less than 5.00 and a pIC50 (HuP-T4) of less than 5.00. It also gave a pIC50 (MKN-1) of less than 5.00, a pIC50 (LCLC-97TM1) of less than 5.00 and a pIC50 (HT55) of less than 5.00. It also gave a pIC50 (MKN-7) of less than 5.00, a pIC50 (KOSC-2) of less than 5.00 and a pIC50 (KU-19-19) of less than 5.00. The pIC50 (HTC-C3) was less than 5.00, the pIC50 (EFM-19) was less than 5.00 and the pIC50 (A-431) was less than 5.00. For the same compound, the pIC50 (ASPC1) was less than 5.00, the pIC50 (LoVo) was less than 5.00 and the pIC50 (NCI-H2170) was less than 5.00. The pIC50 (HuTu80) was less than 5.00, the pIC50 (RMG-I) was less than 5.00 and the pIC50 (A-375) was less than 5.00. For the same compound, the pIC50 (TCC-SUP) was less than 5.00, the pIC50 (KYSE-510) was less than 5.00 and the pIC50 (KYSE-70 cell line) was less than 5.00. For the same compound, the pIC50 (NB14) was less than 5.00, the pIC50 (LK-2) was less than 5.00 and the pIC50 (CAMA-1) was less than 5.00. The pIC50 (VM-CUB-1) was less than 5.00, the pIC50 (CAL-39) was less than 5.00 and the pIC50 (LCLC-103H cell line) was less than 5.00. It also gave a pIC50 (NUGC-3) of less than 5.00, a pIC50 (SW13) of less than 5.00 and a pIC50 (HOP-92) of less than 5.00. For the same compound, the pIC50 (HCC1937) was less than 5.00, the pIC50 (KP-4) was less than 5.00 and the pIC50 (SK-MEL-30) was less than 5.00. For the same compound, the pIC50 (SW626) was less than 5.00, the pIC50 (769-P) was less than 5.00 and the pIC50 (SK-MEL3) was less than 5.00. For the same compound, the pIC50 (HCC70) was less than 5.00.

From ChEMBL document CHEMBL1201861, “Genomics of Drug Sensitity in Cancer screening data, Wellcome Trust Sanger Institute”
